Reference: publication PMC7753147, “High-throughput determination of protein affinities using unmodified peptide libraries in nanomolar scale” (iScience, 2020)

Key:
FL-geph = test: µSPOT peptide microarray binding assay with full-length geph
gephE = test: µSPOT peptide microarray binding assay with recombinant gephE
native geph = test: µSPOT peptide microarray binding assay with native geph from mouse brain lysate
[1] = µSPOT full positional scan of GlyRβ 15-mer DLRSNDFSIVGSLPR, intensity normalised to wild-type sequence (= 1)
[2] = µSPOT full positional scan of GlyRβ 15-mer DLRSNDFSIVGSLPR, native geph, intensity normalised to wild-type sequence (= 1)
[3] = µSPOT peptide microarray, GlyRβ full positional scan, intensity normalised to wild-type sequence DLRSNDFSIVGSLPR (=1)
[4] = µSPOT peptide microarray, GlyRβ full positional scan, recombinant gephE, intensity normalised to wild-type sequence DLRSNDFSIVGSLPR (=1)
[5] = µSPOT peptide microarray, GlyRβ full positional scan, native geph from mouse brain lysate, intensity normalised to wild-type sequence DLRSNDFSIVGSLPR (=1)

Sequence | Fl-geph Binding Intensity [norm.] (FL-geph; [1]) | gephE Binding Intensity [norm.] (gephE; [1]) | Native geph Binding Intensity [norm.] (native geph; [2]) | Fl-geph Binding Intensity [norm.] (FL-geph; [3]) | gephE Binding Intensity [norm.] (gephE; [4]) | Native geph Binding Intensity [norm.] (native geph; [5])
DLRSNDFSIVGSEPR [GlyRβ_Full_Positional_Scan_251] | 1.11 | 0.8 | 0.67 |  |  | 
ELRSNDFSIVGSLPR [GlyRβ_Full_Positional_Scan_011] |  |  |  | 0.94 | 1.1 | 0.97
DLRSKDFSIVGSLPR [GlyRβ_Full_Positional_Scan_094] |  |  |  | 0.79 | 0.92 | 0.66
DLRSNDFSIVGSLPW [GlyRβ_Full_Positional_Scan_288] | 0.84 | 0.89 | 0.76 |  |  | 
DLRSNFFSIVGSLPR [GlyRβ_Full_Positional_Scan_107] |  |  |  | 0.78 | 0.74 | 0.34
DLRSNDFSIVQSLPR [GlyRβ_Full_Positional_Scan_220, GlyR β 414-428 variant G424Q] | 0.45 | 0.43 | 0.29 |  |  | 
VLRSNDFSIVGSLPR [GlyRβ_Full_Positional_Scan_006] |  |  |  | 1.18 | 1.05 | 0.8
DFRSNDFSIVGSLPR [GlyRβ_Full_Positional_Scan_027] |  |  |  | 0.99 | 0.98 | 0.91
DLWSNDFSIVGSLPR [GlyRβ_Full_Positional_Scan_048] |  |  |  | 1.13 | 0.86 | 1.17
DLRSNDFSIVKSLPR [GlyRβ_Full_Positional_Scan_214, GlyR β 414-428 variant G424K] | 0.44 | 0.5 | 0.17 |  |  | 
DLRSNDFSIVGSLNR [GlyRβ_Full_Positional_Scan_279] | 0.77 | 0.71 | 0.67 |  |  | 
ILRSNDFSIVGSLPR [GlyRβ_Full_Positional_Scan_003] |  |  |  | 1.09 | 1.15 | 0.86
DLRSNDFSIVGSLPC [GlyRβ_Full_Positional_Scan_297] | 1.04 | 0.83 | 0.97 |  |  | 
DLRSNDFSIQGSLPR [GlyRβ_Full_Positional_Scan_200, GlyR β 414-428 variant V423Q] |  |  |  | 1.03 | 0.7 | 0.41
DLNSNDFSIVGSLPR [GlyRβ_Full_Positional_Scan_059] |  |  |  | 1.17 | 0.85 | 1.28
DLRSNDFSIVDSLPR [GlyRβ_Full_Positional_Scan_210, GlyR β 414-428 variant G424D] |  |  |  | 0.16 | 0.22 | 0.15
DLRSNPFSIVGSLPR [GlyRβ_Full_Positional_Scan_105] |  |  |  | 0.85 | 0.89 | 0.58
DLYSNDFSIVGSLPR [GlyRβ_Full_Positional_Scan_049] |  |  |  | 1.03 | 0.96 | 1.37
DLRSNDFSTVGSLPR [GlyRβ_Full_Positional_Scan_176, GlyR β 414-428 variant I422T] |  |  |  | 0.95 | 0.53 | 0.31
DLRSNDFSIVGSLPD [GlyRβ_Full_Positional_Scan_290] | 1.21 | 0.96 | 0.66 |  |  | 
DLRSNDFSIVASLPR [GlyRβ_Full_Positional_Scan_201, GlyR β 414-428 variant G424A] |  |  |  | 0.56 | 0.34 | 0.18
DMRSNDFSIVGSLPR [GlyRβ_Full_Positional_Scan_038] |  |  |  | 0.97 | 0.97 | 1.09

Sequence | Fl-geph Binding Intensity [norm.] (FL-geph; [1]) | gephE Binding Intensity [norm.] (gephE; [1]) | Native geph Binding Intensity [norm.] (native geph; [2]) | Fl-geph Binding Intensity [norm.] (FL-geph; [3]) | gephE Binding Intensity [norm.] (gephE; [4]) | Native geph Binding Intensity [norm.] (native geph; [5])
DLRSNDMSIVGSLPR [GlyRβ_Full_Positional_Scan_138, GlyR β 414-428 variant F420M] |  |  |  | 0.51 | 0.43 | 0.32
DLRSNDFSIVGKLPR [GlyRβ_Full_Positional_Scan_234] | 0.96 | 0.81 | 0.47 |  |  | 
DLRSNDFSHVGSLPR [GlyRβ_Full_Positional_Scan_173, GlyR β 414-428 variant I422H] |  |  |  | 0.55 | 0.41 | 0.21
DLRSNDFSIVGSIPR [GlyRβ_Full_Positional_Scan_243] | 1 | 0.94 | 0.93 |  |  | 
WLRSNDFSIVGSLPR [GlyRβ_Full_Positional_Scan_008] |  |  |  | 0.86 | 0.91 | 0.67
DLRSNDFRIVGSLPR [GlyRβ_Full_Positional_Scan_152, GlyR β 414-428 variant S421R] |  |  |  | 0.92 | 0.8 | 0.23
DLRSNRFSIVGSLPR [GlyRβ_Full_Positional_Scan_112] |  |  |  | 0.86 | 0.84 | 0.36
DLRSNDFSISGSLPR [GlyRβ_Full_Positional_Scan_195, GlyR β 414-428 variant V423S] |  |  |  | 0.64 | 0.41 | 0.3
DLRMNDFSIVGSLPR [GlyRβ_Full_Positional_Scan_078] |  |  |  | 1.08 | 1.02 | 1.07
DLRSNDGSIVGSLPR [GlyRβ_Full_Positional_Scan_122, GlyR β 414-428 variant F420G] |  |  |  | 0.55 | 0.49 | 0.37
DLRSNDCSIVGSLPR [GlyRβ_Full_Positional_Scan_137, GlyR β 414-428 variant F420C] |  |  |  | 0.63 | 0.67 | 0.53
DLRSNDFSIVLSLPR [GlyRβ_Full_Positional_Scan_204, GlyR β 414-428 variant G424L] |  |  |  | 0.53 | 0.57 | 0.23
DLRSNDFSIVGRLPR [GlyRβ_Full_Positional_Scan_232] | 1.06 | 0.87 | 0.8 |  |  | 
DLRSNDFSIVGQLPR [GlyRβ_Full_Positional_Scan_240] | 1.12 | 0.84 | 1.4 |  |  | 
DLRSNDLSIVGSLPR [GlyRβ_Full_Positional_Scan_124, GlyR β 414-428 variant F420L] |  |  |  | 0.69 | 0.58 | 0.44
LLRSNDFSIVGSLPR [GlyRβ_Full_Positional_Scan_004] |  |  |  | 1.1 | 1.18 | 0.66
QLRSNDFSIVGSLPR [GlyRβ_Full_Positional_Scan_020] |  |  |  | 1.16 | 1.19 | 1.2
DLRSNDFSIVGSLPY [GlyRβ_Full_Positional_Scan_289] | 0.74 | 0.87 | 1.09 |  |  | 
DLRSNDDSIVGSLPR [GlyRβ_Full_Positional_Scan_130, GlyR β 414-428 variant F420D] |  |  |  | 0.38 | 0.45 | 0.26
DLRSNDFSIVGSKPR [GlyRβ_Full_Positional_Scan_254] | 0.68 | 0.59 | 0.24 |  |  | 
DLRSNDFSIVGSLQR [GlyRβ_Full_Positional_Scan_280] | 0.77 | 0.53 | 0.41 |  |  | 
